Consider eight substances from US8808666B2, “Peptides that specifically target amyloid deposits” (University of Tennessee Research Foundation, priority 2010, dated 2014).

Entries after “also recorded” stand apart in the source; their conditions may differ.

One series addresses T1, AA amyloid (Mus musculus, UniProt P05367).
T1 construct: from tissue; host or cells: living TRIAD mice with systemic peripheral AA amyloidosis
T1 sequence (P05367 20-95 limits assumed): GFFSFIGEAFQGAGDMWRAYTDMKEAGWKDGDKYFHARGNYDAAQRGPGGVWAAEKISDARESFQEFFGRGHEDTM
As to the kind of experiment: In vivo evaluation of radiolabeled peptides in TRIAD AA mouse model: SPECT imaging, biodistribution, autoradiography. The following applies: for autoradiography: binding to AA amyloid in the necrotic renal papillae in vivo: mouse; for SPECT imaging of 125I-labeled fusion peptides in AA mice versus WT: mice with visceral AA amyloidosis. As to the method:
Based on the data obtained with protamines, in the Examples below, peptides that are positively charged are selected. They were labeled with radioiodine (I-125 and I-123) or technetium (Tc-99m) tested for in vivo binding to systemic AA amyloid deposits in the transgenic rapidly inducible amyloid disease (TRIAD) murine model by microSPECT or microPET imaging. The tissue biodistribution of each were assessed by gamma counting and the micro-distribution determined by autoradiography. Further, preliminary examinations were performed of the binding of biotinylated forms of these peptides with formalin-fixed, paraffin-embedded, amyloid-containing tissue sections from patients with AL κ and λ amyloidosis, Alzheimer's disease, Transthyretin amyloidsis (ATTR), serum amyloid protein A amyloidosis (AA), fibrinogen α amyloidosis (AFibα), calcifying epithelium odontogenic tumor amyloid (AODAM), galectin 7 amyloidosis (AGal), and Lect2 amyloidosis (ALECT2).
Two methods of radiolabeling the peptides were employed. For radioiodination, the direct oxidative iodination of tyrosyl groups on the peptides was employed. This method yields product with high specific activity (˜10-20 μCi/μg) of pure ^125I-labeled peptide. The second method involves radiolabeling the peptides with ^99mTc according to the method of Tran et al. (Bioconjugate Chem, 2007, 18, 549-558). The quality of each radiolabeled peptide was assessed by SDS-PAGE (15% poly-acrylamide) analyzed with quantitative phosphor imaging.
Each of the radiolabeled peptides were evaluated for its specific reactivity with amyloids in vivo, using the TRIAD AA mouse model, by using SPECT imaging, biodistribution measurements, and autoradiography. The reactivity of the radiolabeled peptides were assessed in transgenic rapidly inducible amyloid disease (TRIAD) mice with systemic peripheral AA amyloidosis as well as control (amyloid free) mice, by imaging the mice. The reactivity of the peptides were evaluated at 1 hour, 2 hours, 4 hours, 8 hours, 12 hours, or 24 hours post injection of the radiolabeled peptides. […] The other peptides also bound amyloids, but not as well as these.
In a dual-energy imaging experiment, peptide p31 was labeled with Tc^99m and SAP labeled with I^125 and the binding of each radiotracer was examined by using dual-energy microSPECT imaging in an individual TRIAD mouse with AA amyloidosis.
To examine the kinetics of the reactivity of peptides p48, p31, and p31-GGGY, dynamic PET imaging of I^124-labeled peptides p48, p31, p31-GGGY, and p50 (as a control) was performed in TRIAD mice with AA amyloidosis or wild type mice without amyloid. Finally, in a preliminary study, the binding of I^125-labeled SAP and Tc^99m-labeled peptide p31 was compared in the same TRIAD mouse with AA amyloidosis.

Series [1] concerns amyloid deposits in tissues from patients with light chain (AL) amyloidosis, Alzheimer's disease and other forms of amyloidosis. As to the kind of experiment: Biotinylated peptide overlay on formalin-fixed paraffin embedded patient tissues. It counts as binding, human. The following applies: formalin-fixed paraffin embedded tissue sections. As to the method: The reactivity of biotinylated peptide p31 with amyloid deposits in formalin-fixed paraffin embedded tissues from patients with light chain (AL) amyloidosis, or Alzheimer's disease, and other forms of amyloidosis was examined.
(§1) To catalog the range of amyloids that p31 and other peptides may bind, biotinylated peptides using the biotinyl-maleimide adduct which interacts specifically with the solitary Cys residue in the “leader” sequence were prepared. The peptides were overlaid onto formalin-fixed 6 μm-thick amyloid-containing tissue sections, incubated overnight and then the distribution visualized using standard immunohistochemical techniques.

The next series relates to ACEOT amyloid (ODAM). The series can be described thus: Biotinylated peptide overlay on amyloid-containing tissue sections. The series is classed as binding, human. As for the experimental part: as §1
In series [2] the test system is AFibα amyloid (Fibrinogen α). The description is as above. The series is classed as binding, human. As to the method:
as §1

Series [3] has as its system ALκ amyloid (κ light chains). Described as above. It counts as binding, human. As to the method:
as §1

Series [4] concerns ALλ amyloid (λ light chains). The description is as above. It counts as binding, human. The following applies: overnight incubation, 6 μm-thick sections. As for the experimental part: as §1
The subject of series [5] is AA amyloid (Serum amyloid protein A). The description is as above. The series is classed as binding. The following applies: AA (human and canine). As for the experimental part: as §1
Series [6] deals with T2, AGal amyloid (Galectin 7) (Homo sapiens, UniProt P47929).
T2 construct: from tissue; host or cells: formalin-fixed patient tissue sections
Described as above. It counts as binding. As for the experimental part: as §1

A further series concerns the target T3, ALECT2 amyloid (Lectin2) (Homo sapiens, UniProt O14960).
T3 construct: from tissue; host or cells: formalin-fixed patient tissue sections
T3 sequence (O14960 19-151): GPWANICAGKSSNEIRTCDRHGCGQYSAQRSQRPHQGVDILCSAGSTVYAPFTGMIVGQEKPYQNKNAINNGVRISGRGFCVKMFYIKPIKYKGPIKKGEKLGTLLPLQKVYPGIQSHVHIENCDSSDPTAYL
The series is described as above. The series is classed as binding. As to the method: as §1

Series [7] has as its target T4, ATTR amyloid (Transthyretin) (Homo sapiens, UniProt P02766).
T4 construct: amyloid-containing tissue sections from patients with AL κ and λ amyloidosis, Alzheimer's disease, Transthyretin amyloidsis (ATTR); from tissue; host or cells: formalin-fixed patient tissue sections
The series is described as above. The series is classed as binding. As to the method: as §1

For series [8], the target named is T5, Aβ amyloid (Amyloid β peptide in Alzheimer's disease) (Homo sapiens, UniProt P05067).
T5 construct: Amyloid β peptide in Alzheimer's; from tissue; host or cells: formalin-fixed tissue sections from Alzheimer's disease patients
The description is as above. The series is classed as binding. As for the experimental part: as §1

Series [9] relates to ApoA2c amyloid-laden tissues. As to the kind of experiment: Ex vivo amyloid binding assay with homogenized tissue of ApoA2c mice. The arrangement: species or system mouse. The following applies: for binding to ApoA2c amyloid-laden tissues in vitro: 125I-labeled, 1 h incubation, gamma counting. As to the method:
(§2) The novel peptide, p5R+14, was radiolabeled with ^125I via an oxidation reaction with chloramine T. The labeled peptide was separated from free iodide using size exclusion chromatography on a Sephadex G25 column. For ex vivo amyloid binding assays, the ^125I-labeled p5 and p5R+14 peptides were added to 50 μL of homogenized tissue derived from wild type or amyloid laden ApoA2c mice. After a 1 h incubation, the amount of bound peptide (% of total) was assessed by gamma counting following centrifugation. For in vivo imaging, peptides p5 and p5R+14 were radiolabeled as above, and the radiopurities were determined by using SDS-PAGE and phosphor imaging.

The next series concerns ApoA2c amyloid. As to the kind of experiment: In vivo SPECT/CT imaging, biodistribution and micro-autoradiography in ApoA2c mice. The arrangement: species or system mouse. The following applies: for SPECT/CT uptake in amyloid-laden tissues: 2 or 4 h pi; for biodistribution, tissue-to-muscle ratios, ApoA2c versus WT tissues: mouse, in vivo. As for the experimental part:
as §2
Approximately 200 μCi was injected iv in the lateral tail vein of ApoA2c mice (n=3). SPECT/CT images were acquired using the Inveon Tri-Modality System at 2 or 4 h pi. Organs were harvested and biodistribution of radiotracers was determined and recorded as % injected dose/gram. For comparisons between the peptides, tissue to muscle ratios were used. The tissues were then fixed in formalin, paraffin embedded, sectioned and exposed to photographic emulsion for ˜3 days.

For another series, the target named is T6, AA amyloid deposits (Mus musculus, UniProt P05367).
T6 sequence (P05367 20-95 limits assumed): T1 sequence (P05367 20-95 limits assumed)

T2 sequence (P47929 whole entry): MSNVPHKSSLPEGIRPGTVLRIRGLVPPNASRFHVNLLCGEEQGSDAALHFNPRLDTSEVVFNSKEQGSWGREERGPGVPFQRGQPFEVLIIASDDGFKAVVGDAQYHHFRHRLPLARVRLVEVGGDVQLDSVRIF
Description for AA amyloid deposits: Following radioiodination, ^125I-labeled protamine (^125I-protamine) was administered to animals with severe systemic AA amyloidosis mice or to amyloid-free mice and allowed to circulate for 1 hour, 2 hours, 4 hours, 8 hours or 24 hours. At each time point high-resolution microSPECT/CT images were acquired and the tissue distribution of the radioactivity determined by gamma counting. Finally, 6 μm-thick tissue sections were prepared for autoradiography and histological evaluation of the micro-distribution of the radiolabeled peptides and amyloid deposits, respectively.

Take “CGGYSKAQKAQAKQAKQAQKAQKAQAKQAKQ (Heparin-binding peptide) [p31]”: in the series with AA amyloid (99mTc-labeled peptide, 125I-labeled SAP, same mouse), the “SPECT imaging of AA amyloid compared to SAP” value was “as effective as SAP; also recorded: the same as that for SAP”. Moreover, in the series with AA amyloid (125I-labeled), the “SPECT distribution in AA mouse compared to WT control” value was “totally different”. Moreover, the “retention on AA amyloid in vivo (SPECT images and biodistribution)” value with AA amyloid (24 h post-injection) was “remained bound to the AA amyloid in vivo”. Also, the “specific amyloid binding, ranking from in vivo imaging studies” value with AA amyloid (TRIAD AA mouse model, 1-24 hours post injection) is recorded as “best specific amyloid binding reagents”. Also, the “autoradiography: reactivity with murine pancreatic AA amyloid” value with AA amyloid (compared to SAP) is reported as “greater reactivity with murine pancreatic AA amyloid as compared to SAP”. The “biodistribution: amount of amyloid bound compared to SAP” value with AA amyloid (mice) is given as “binds more amyloid in vivo”. The “autoradiography: binding to AA amyloid in the necrotic renal papillae in vivo” value in the series with AA amyloid is reported as “binds AA amyloid in the necrotic renal papillae”. The “binding of biotinylated peptide to tissue amyloid” value in [1] is “bound tissue amyloid from these patients with great affinity; also recorded: selectively bound to the amyloids in the tissue section”. Besides, the “binding to amyloid in tissue sections” value (in the series on ACEOT amyloid (ODAM); in series [2]; in [3]; in series [4]; in series [5]; in series [6]) was “specifically binds significantly” throughout. Further, the “binding to amyloid in tissue sections” value (with ALECT2 amyloid (Lectin2); in series [7]; in [8]) was “specifically binds significantly” each time.

Regarding “GGGYSKAQKAQAKQAKQAQKAQKAQAKQAKQ [p31-GGGY]”, the “binding to ApoA2c amyloid-laden tissues in vitro” value in series [9] is given as “able to bind”. Besides, in the series on ApoA2c amyloid (ApoA2c mice), the “uptake of radiotracer in splenic amyloid in vivo” value was “no uptake” and the “SPECT/CT uptake in amyloid-laden tissues” value is “lack of positive amyloid uptake”. In addition, the micro-autoradiography of tissues entry with ApoA2c amyloid (ApoA2c mice, listed as 125I-p5) was “only slight uptake”. In addition, the micro-autoradiography of tissues entry in the series with ApoA2c amyloid (ApoA2c mice, listed as p5) was “scant amounts”. In the series with ApoA2c amyloid, the “biodistribution, tissue-to-muscle ratios, ApoA2c versus WT tissues” value is listed as “not significantly higher”.

Take “GGGYSRAQRAQARQARQAQRAQRAQARQARQAQRAQRAQARQARA [p31RGGGY + 14]”: in [9], the “binding to ApoA2c amyloid-laden tissues in vitro” value is given as “able to bind”. Moreover, in [9] (tissues of ApoA2c-amyloid mouse, listed as p5R+14), the “amount bound compared between p5R+14 and p5” value is on record as “bound in greater amounts to all tissue samples as compared to p5; also recorded: higher binding in every tissue of interest”. In addition, in the series on ApoA2c amyloid (ApoA2c mice), the micro-autoradiography of tissues result is listed as “localized to amyloid within the tissues”. Also, the “SPECT/CT uptake in amyloid-laden tissues” value is “uptake of ^125I-p5R+14 in amyloid-laden tissues such as the heart, liver, spleen and intestines; also recorded: cardiac uptake is not part of blood pool clearance” in the series on ApoA2c amyloid (ApoA2c mice, listed as 125I-p5R+14); “bound cardiac amyloid deposits as well as those in the liver, spleen and intestines” with ApoA2c amyloid (ApoA2c mice, listed as p5R+14). The “biodistribution, tissue-to-muscle ratios, ApoA2c versus WT tissues” value with ApoA2c amyloid is given as “clearly more p5R+14 binding to the diseased tissues”.

Turning to “GGYSKAQKAQAKQAKQAQKAQKAQAKQAKQGGTFFYGGSRGKRNNFKTEEY [WAL14465]”, the “SPECT imaging of 125I-labeled fusion peptides in AA mice versus WT” value (“SPECT imaging … in AA mice versus WT” below) with AA amyloid is “retained by the amyloid deposits in the liver spleen and kidneys”.

As to “RRLSYSRRRFCGGYSKAQKAQAKQA KQAQKAQKAQAKQAKQ (RRLSYSRRRFCGGYSKAQKAQAKQAKQAQKAQKAQAKQAKQ) [Syb3-p31, fusion of p31 with cell penetrating peptide]”, in the series with AA amyloid, the “SPECT imaging … in AA mice versus WT” value was “retained by the amyloid deposits in the liver spleen and kidneys”.

In the case of “SAP: Serum amyloid P component, the gold standard amyloid imaging agent; decameric, Mw ~250 kD [reference compound]”, the “autoradiography: binding to AA amyloid in the necrotic renal papillae in vivo” value with AA amyloid is “does not”.

In the case of “YGRKKRRQRRRCGGYSKAQKAQAKQAKQAQKAQKAQAKQAKQ [TAT-p31, fusion of p31 with cell penetrating peptide]”, the “SPECT imaging … in AA mice versus WT” value with AA amyloid is “retained by the amyloid deposits in the liver spleen and kidneys”.

Take protamine: the “microSPECT distribution in AA mice” value at AA amyloid deposits (AA mice) is “sequestered by amyloid deposits in the liver, kidney, pancreas and spleen”. Further, the “micro-autoradiography association with amyloid” value on AA amyloid deposits (AA mice, notably liver) is “preferentially associated with the AA amyloid”. Moreover, the “accumulation in organs or tissues of amyloid-free mice” value at AA amyloid deposits (amyloid-free mice) is reported as “little or no specific accumulation”. On AA amyloid deposits (liver, kidney, pancreas, spleen, stomach, gamma counting), the “calculated tissue:muscle ratios, mice with AA versus amyloid-free mice” value is given as “at least 2 fold”. The “fate of radiolabel in control mice” value on AA amyloid deposits (mouse, in vivo) is recorded as “rapidly dehalogenated”.
